From patent US20040175447A1, “Feeds and fertilizers containing pentacyclic triterpenes” (The Nisshin OilliO, Ltd., priority 2001, published 2004)

Test system: B-16 melanoma cells
Experiment: Evaluation of melanin production-inhibitory effect (cell-whitening degree of cultured B-16 melanoma cells); as to Melanin production-inhibitory effect (cell-whitening degree): key: ++: The whitening degree is higher than that observed for the positive control; +: The whitening degree is almost identical to that observed for the positive control; ±: The whitening degree is not higher than that observed for the positive control, but higher than that observed for the control; −: The whitening degree is almost identical to that observed for the control
Assay type: cell-based
Settings: for Melanin production-inhibitory effect (cell-whitening degree): positive control 450 ppm vitamin C-magnesium phosphate; for melanogenesis-inhibitory function relative to that observed when 450 ppm of vitamin C-magnesium phosphate (standard) is added: from Table 1
Procedure: In the present invention, the melanogenesis-inhibitory effect is evaluated and compared on the basis of the results of tests for examining the melanogenesis-inhibitory function in which B-16 melanoma cells are cultivated, as a primary evaluation. Moreover, a feed is, for instance, practically prepared and its effectiveness in the melanogenesis-inhibition is evaluated as a secondary evaluation. It has been confirmed that the pentacyclic triterpenes whose strong melanogenesis-inhibitory function is confirmed by the cell culture test as the primary evaluation also show an excellent effect in the secondary evaluation test. In addition, it has also been confirmed that there is a correlation between the results obtained in these two evaluation methods.
If the culture system includes a melanogenesis-inhibitory substance during the proliferation thereof, the blackening of the cells is suppressed while the whitening thereof is relatively promoted. Accordingly, the melanogenesis-inhibitory function of the substance can be evaluated by comparing the degree of whitening observed for the substance with the degree of blackening observed for a control. The evaluated results of the melanogenesis-inhibitory effect obtained in this cell culture system clearly indicate that the pentacyclic triterpenes and/or physiologically acceptable salts thereof or derivatives thereof have quite strong melanogenesis-inhibitory effects. For instance, when comparing the effects thereof with that achieved by vitamin C-magnesium phosphate, the melanogenesis-inhibitory effect is about 100 to 200 times, for maslinic acid, about 100 to 200 times, for maslinic acid salts, about 10 to 100 times, for erythrodiol, about 30 to 120 times, for uvaol, about 30 to 120 times, for betulinic acid, about 10 to 100 times, for betulin, about 100 to 200 times, for ethyl maslinate, about 50 to 150 times, for acetylated maslinic acid, about 30 to 120 times, for triethylsilylated maslinic acid, about 50 to 150 times, for stearoyl derivative of ethyl maslinate, about 10 to 100 times, for acetylated erythrodiol, about 10 to 100 times, for acetylated uvaol, about 10 to 100 times, for ethyl betulinate, and about 5 to 50 times, for acetylated betulin, that observed for the vitamin C-magnesium phosphate.
A culture medium was dispensed to wells of a 6-well plate (2 mL/well each), followed by inoculation of a desired amount of B-16 melanoma cells on each well, allowing the wells to stand at 37° C. and 5% CO2 to thus cultivate the cells. On the day subsequent thereto, a candidate sample (pentacyclic triterpenes) solution prepared was added to and mixed with the culture medium containing the cells and the cultivation was continued. The culture medium was replaced with fresh one on the 5th day from the initiation of the cultivation and the prepared sample solution was again added to the wells. On the next day, the culture medium was removed to recover the cells, followed by the washing of these cells with PBS (phosphate buffered physiological saline) and the subsequent evaluation of the cell-whitening degree. In this respect, the melanogenesis-inhibitory function was evaluated by comparing the cell-whitening degree thus obtained with that observed when using 450 ppm of vitamin C-magnesium phosphate as a known whitening agent (a positive control) and that obtained when any candidate sample was not used (control), according to the following evaluation criteria.
The evaluation criteria for the cell-whitening degree are as follows:
Regarding the results listed in Table 1, the whitening degree observed when adding 450 ppm of vitamin C-magnesium phosphate is selected as a standard.

## CC1(C)CC[C@]2(C(=O)O)CC[C@]3(C)C(=CC[C@@H]4[C@@]5(C)C[C@@H](O)[C@H](O)C(C)(C)[C@@H]5CC[C@]43C)[C@@H]2C1 [Purified maslinic acid 2, maslinic acid]
2 ppm
  Melanin production-inhibitory effect (cell-whitening degree): ±
4 ppm
  Melanin production-inhibitory effect (cell-whitening degree): +
6 ppm
  Melanin production-inhibitory effect (cell-whitening degree): ++
8 ppm
  Melanin production-inhibitory effect (cell-whitening degree): ++
10 ppm
  Melanin production-inhibitory effect (cell-whitening degree): ++

## C[C@H]1[C@H](C)CC[C@]2(C(=O)O)CC[C@]3(C)C(=CC[C@@H]4[C@@]5(C)CC[C@H](O)C(C)(C)[C@@H]5CC[C@]43C)[C@H]12 [Ursolic acid]
2 ppm
  Melanin production-inhibitory effect (cell-whitening degree): ±
4 ppm
  Melanin production-inhibitory effect (cell-whitening degree): +
6 ppm
  Melanin production-inhibitory effect (cell-whitening degree): ++
8 ppm
  Melanin production-inhibitory effect (cell-whitening degree): ++
10 ppm
  Melanin production-inhibitory effect (cell-whitening degree): ++
  melanogenesis-inhibitory function relative to that observed when 450 ppm of vitamin C-magnesium phosphate (standard) is added: about 110 times

## C[C@H]1[C@H](C)CC[C@]2(CO)CC[C@]3(C)C(=CC[C@@H]4[C@@]5(C)CC[C@H](O)C(C)(C)[C@@H]5CC[C@]43C)[C@H]12 [Uvaol]
2 ppm
  Melanin production-inhibitory effect (cell-whitening degree): −
6 ppm
  Melanin production-inhibitory effect (cell-whitening degree): −
10 ppm
  Melanin production-inhibitory effect (cell-whitening degree): +
25 ppm
  Melanin production-inhibitory effect (cell-whitening degree): +
50 ppm
  Melanin production-inhibitory effect (cell-whitening degree): +
  melanogenesis-inhibitory function relative to that observed when 450 ppm of vitamin C-magnesium phosphate (standard) is added: about 40 times
